One block for each molecule: values may come before it.
What was measured:
Ras = Ras activity assay (Raf-1-Ras binding domain GST-agarose), hippocampal slices; assay type: cell-based, mouse
Procedure: The treated hippocampal homogenates (250 μg) were incubated with […] of Raf-1-Ras binding domain GST-agarose for 45 min at 4° C. while rotating, as per manufacturer's instructions. […] Results were quantified by NIH Image 1.61.

NMDAR = test: NMDAR-mediated EPSCs, whole-cell voltage clamp, hippocampal CA1; assay type: cell-based, mouse; conditions: for effect on the ethanol-induced inhibition of NMDAR-mediated EPSCs: inhibitor applied before ethanol, hippocampal slices
Procedure: Electrophysiological recordings were performed in C57BL/6J mice ranging from P21 to P26. Briefly, mice were anesthetized with halothane and decapitated as per University of California, San Francisco animal care guidelines. Horizontal sections of the hippocampus ([…]) were prepared with a vibratome (Leica, Nussloch, Germany). Slices were placed in a holding chamber and allowed to recover for at least 1 hr before being placed in the recording chamber and superfused with aCSF saturated with 95% O2/5% CO2 and containing (in mM): 119 NaCl, 1.6 KCl, 1.0 NaH2PO4, 1.3 MgCl2 (for EPSCs) or 0.01 MgCl2 (for field excitatory postsynaptic potentials (fEPSPs)), 2.5 CaCl2, 26.2 NaHCO3 and 11 glucose. Picrotoxin (100 μM) was added to block gamma-aminobutyric acid-A (GABAA) receptor-mediated inhibitory synaptic transmission, and CNQX (for EPSCs) or NBQX (for fEPSPs) (10 μM) was added to block α-amino-3-hydroxy-5-methyl-4-isoxalepropionate (AMPA)/Kainate receptors. Cells were visualized using infrared differential interference contrast video microscopy.
Whole-cell voltage clamp-recordings were made using an Axopatch ID or a MultiClamp 700A amplifier (Axon Instruments, Union City, Calif.). Electrodes (3.5-5.0 MΩ) contained (in mM): 120 Cesium methansulfonate, 20 HEPES, 0.4 EGTA, 2.8 NaCl, 5 TEA-Cl, 2.5 MgATP, and 0.25 NaGTP (pH 7.2-7.3), buffer at 270-285 mOsm. Series resistance (10-30 MΩ) and input resistance were monitored on-line with a 4 mV depolarizing step (50 ms) given just after every afferent stimulus. Recordings from the CA1 region of the hippocampus were obtained with a bipolar stimulating electrode that was placed 100-300 μm rostral to the recording electrode and was used to stimulate excitatory afferents at 0.1 Hz. Neurons were voltage-clamped at +40 mV to evoke NMDAR-mediated EPSCs. At this potential, NMDARs have a maximal open probability and the Mg^2+ block is removed. EPSCs were filtered at 2 kHz, digitized at 5-10 kHz and collected on-line using Igor Pro software (Wavemetrics, Lake Oswego, Oreg.) or pClamp 9 (Axon Instruments, Union City, Calif.). NMDAR example traces were constructed by averaging 20 EPSCs (200 sec) elicited at +40 mV during baseline, ethanol application, drug application or drug application with ethanol. To calculate the decay time (τ), Igor Pro software was used to fit exponential decay curves to averaged NMDAR-mediated EPSCs using the formula: y=A1exp(−invTau1*x)+A2exp(−invTau2X).

[1] = target: Raf-1-Ras binding domain GST agarose (UniProt P04049); test: pull-down of hippocampal homogenates with Raf-1-Ras binding domain GST-agarose, Western blot with pan anti-Ras; ratio of Ras-GTP over total Ras, normalized to the control

- Ras activity (Ras; 50 mM KCl, 5 min, hippocampal slices): increases Ras activity
Molecule: [Cl-].[K+] [KCl]

Molecule: C[C@H](NC(c1cccc2[nH]c(=O)c(=O)[nH]c12)P(=O)(O)O)c1ccc(Br)cc1 (some centres unmarked) [NVP-AAM077, reference compound]
- decrease of NMDAR EPSCs (NMDAR; NVP-AAM077 0.4 μM, n=6): 55±4%
- NMDAR-mediated EPSCs in slices first treated with ethanol and ifenprodil (NMDAR; NVP-AAM077 application, data not shown): no effect
- weighted decay time (NMDAR; in the presence of NVP-AM077 (0.4 μM), n=6, baseline 43.0±2.1 ms): 68.7 ± 9.4 ms
- effect on the ethanol-induced inhibition of NMDAR-mediated EPSCs (NMDAR): occluded

Molecule: CC(C(O)c1ccc(O)cc1)N1CCC(Cc2ccccc2)CC1 (centres unmarked) [ifenprodil, reference compound]
- decrease of NMDAR EPSCs (NMDAR; ifenprodil 3 μM, n=5): 37+5%
- NMDAR-mediated EPSCs in slices treated with both ethanol and NVP-AAM077 (NMDAR; ifenprodil application, data not shown): further inhibition
- weighted decay time (NMDAR; in the presence of ifenprodil (3 μM), n=7, baseline 41.2±3.4 ms): 34.7 ± 4.5 ms
- effect on the ethanol-induced inhibition of NMDAR-mediated EPSCs (NMDAR): did not

- fold increase of Ras-GTP pulled down, ethanol-treated over control slices [1]: 2 fold
Molecule: GTP-bound active Ras, endogenous in mouse hippocampal slices (from UniProt Q61411 1-186)

Molecule: Tat-peptide: Tat-peptide (YGRKKRRQRRR: SEQ ID NO:2) synthesized by Syn Pep, used as a control
- effect on ethanol-mediated increase in endogenous Ras activity (Ras; pre-incubation 2 hrs (Tat-H-Ras DN printed 2 mM, Tat-peptide 2 μM), then 100 mM ethanol 15 min): did not

— patent US20070148660A1, “Treatment of maladaptive substance use with H-ras antagonists” (The Regents of the University of California, priority 2005, published 2007)
